Measurements reported in patent US11965100B2, “Aggregation-induced emission luminogens useful for cancer cell discrimination and monitoring” (The Hong Kong University of Science and Technology, priority 2020, dated 2024).

Assays:
[1] = Two-photon absorption cross section in DMSO, fluorescein as standard; type: physicochemical
Excerpt: In addition, IVP-02 emits redder fluorescence in solid state than that in solution. To testify the mechanism of the red shift in solid state of IVP-02, its crystal has been analyzed in FIGS. 2G and 2H. The molecules of IVP-02 are anti-parallelly stacked and form multimers in the crystalline state. The short intermolecular stacking distances of the multimers are 3.636 Å, 3.455 Å, 3.394 Å, 3.375 Å, 3.466 Å, and 3.465 Å, indicating strong intermolecular interactions inside the multimers. So the red-shift emission in solid state should be attributed to the intermolecular π-π interactions induced by the short contact between the molecules. […] The TPEF spectra of IVP-02 excited at different pulse wavelengths (780-900 nm) in DMSO were measured in FIG. 2F. The highest […] was 287 GM excited at 800 nm. Such high δ value is beneficial for two-photon imaging in live cells and deep tissues.

[2] = Quantum yield in the solid state; type: physicochemical
Excerpt: IVPI-2 is able to stain mitochondria in healthy live cancer cells. However, when Δψm decreases, IVPI-2 migrates into nucleolus. Since IVPI-2 is target-changeable according to the change of mitochondrial physiology, the chemical structure of IVPI-2 was modified in order to enhance the mitochondria to nucleolus migration. Iodide ion is a well-known effective fluorescent quencher due to its heavy-atom effect. The quantum yield of IVP-02 in the solid state is 4.3%, which is about 3 times than that of IVPI-02 (1.3%). An Exemplary synthetic route to certain embodiments of the compounds described herein is depicted in Scheme 1.

[3] = Absorption and one-photon excited fluorescence spectra, AIE activity; type: physicochemical
Excerpt: Similar results were reported by others. […] With the increase of glycerol volume content accompanied by viscosity increasing, the FL intensity increased gradually. […] These phenomena occur because high viscosity and low temperature could hamper intramolecular motion, leading to the closure of the nonradiative decay channel and thus enhanced FL emission. Furthermore, we added some RNA in PBS solution of IVP-02. […] Based on the calculation results in FIG. 20, IVP-02 located in the minor grooves of RNA, where the intramolecular motion of IVP-02 was also hampered.

[4] = tested on: mitochondria in HeLa and A549 cells; assay: Co-stain with mitochondrial probe MitoTracker Deep Red FM (MTDR); type: cell-based; conditions: 2 μM dye, 0.2 μM MTDR, HeLa and A549
Procedure: FIG. 6 CLSM images of live HeLa and A549 cells stained with 2 μM IVP-02 and 0.2 μM MTDR, respectively. IVP-02: λex=488 nm, λem=500-650 nm; MTDR: λex=640 nm, λem=650-700 nm. Scale bar=20 μm.
In the above pictures, filamentous structures in cytoplasm of cancer cells were observed, which were typical morphology of mitochondria. Then co-stain experiments with commercial mitochondrial probe MitoTracker™ Deep Red FM (MTDR) were carried out (FIG. 6).
It was speculated that the membrane permeability of the probe was a key factor for its selectivity to cancer cells, since the plasma membrane of cancer cells was reported to be more permeable than normal cells. Consequently, IVP-02 was modified by lengthening the alkyl chain at the pyridine salt side and indole side, respectively, to tune the membrane permeability. The synthetic route to these new IVP molecules is depicted in Scheme 1. Their chemical structures were fully characterized by ^1H NMR, ^13C NMR, and ^19F NMR. Then cancer cells A549 were stained with the five new molecules, respectively. […] The co-stain experiments with MTDR also confirmed their location in mitochondria in A549 cells in FIG. 7C. In addition to A549 cells, the same experiments were also carried in HeLa cells (FIGS. 8 and 9).

A549 and HeLa cells = assay: Mitochondrion-nucleolus migration on H2O2 treatment; type: cell-based; conditions: pre-stained 2 μM 30 min, 10 mM H2O2 10 min
Procedure: FIG. 17 Live A549 and HeLa cells were pre-stained with 2 μM IVP-02 for 30 min, and treated with 10 mM H2O2 for 10 min. λex=488 nm, λem=500-650 nm. Scale bar=20 μm.
Monitoring cell viability is a highly valuable task for the fundamental researches in biology, pathology, and medicine. Then we investigated whether IVP-02 could monitor cell viability. Δψm is a very important indicator to characterize cell viability. With the loss of cell viability, Δψm would decrease, while with the recovery of cell viability, Δψm would also recover to the normal level. […] Carbonyl cyanide m-chlorophenyl hydrazone (CCCP) is a type of protonophore and can cause rapid acidification of mitochondria by collapsing Δψm. Cancer cells A549 were pre-stained with IVP-02 for 30 min. In FIG. 15A, in the beginning, IVP-02 stained mitochondria clearly. […] Hydrogen peroxide (H2O2) can inhibit the oxidation respiratory chain that would cause the loss of cell viability. Then live A549 and HeLa cells were pre-stained with IVP-02, and treated with 10 mM H2O2.

## CC[n+]1ccc(/C=C/c2c[nH]c3ccccc23)cc1 [IVP-02]
[1]; λex 780 nm
  Two-photon absorption cross section (δ): 106 GM
[1]; λex 800 nm
  Two-photon absorption cross section (δ): 287 GM
[1]; λex 820 nm
  Two-photon absorption cross section (δ): 173 GM
[1]; λex 840 nm
  Two-photon absorption cross section (δ): 194 GM
[1]; λex 860 nm
  Two-photon absorption cross section (δ): 271 GM
[1]; λex 880 nm
  Two-photon absorption cross section (δ): 227 GM
[1]; λex 900 nm
  Two-photon absorption cross section (δ): 78 GM
[2]
  quantum yield: 4.3%
  quantum yield relative to IVPI-02: about 3 times
[3]; viscosity, temperature, RNA, solid state
  AIE activity: possesses AIE activity
[3]; λex 440 nm
  fluorescence in the solid state: around 575 nm
[4]
  co-localization coefficient with MTDR: around 0.9
A549 and HeLa cells
  fluorescence after adding H2O2: strong fluorescence was observed in nucleolus
